Test results reported in patent publication US10197574B2, “Analyte detection using near-infrared fluorophores” (Portland State University, priority 2011, dated 2019).
Marks after values point to notes of the source that are not given here. Values belong to the molecule of their own block, whether it stands above or below them.

Tests used:
Emission in blood = assay: Emission in blood; design: species or system porcine
Procedure: Compound 15d (Table 1) was diluted to 40 μM in 50% DMSO:50% 25 mM pH 9 phosphate buffer. […] Emission remained stable for at least 1 hour. The absorption profile matches the output of a laser pointer (635-670 nm; max output <5 mW). NIR emission (80 μM) was clearly visible with a digital camera (Kodak EasyShare Z740) in a NIR photograph taken with 8 sec. exposure collected through a Hoya R72 camera filter (% T<1% at <690 nm, % T>90% at >750 nm).
Its absorbance and fluorescence spectra faded over time, but remained visible after about an hour (although with only 10-20% of its original emission intensity). Molecular modeling has shown favorable structural interactions of compounds 5f and 24 with glutathione (see, e.g., FIG. 20—compound 24).
Spectral behavior of compound 15g (type [c] annulated seminaphthorhodamine methyl ester (free amine) with the 3-1 transposition) was investigated to determine its potential for sensing use in whole blood. Solutions of compound 15g in 10% or 90% by volume whole blood (porcine blood in Na-EDTA, Lampire Biological Laboratories) were investigated in a 3×3 mm cell. […] Throughout much of the spectrum, the dye produces a greater absorbance than the blood alone. The change in absorbance between the two spectra provides the effective absorbance of the dye. […]

[1] = UV-visible absorbance spectroscopy of fluorophores (15 μM, 90% aqueous, 10% DMSO); type: physicochemical; settings: for red-shift of absorbance maximum: 15a compared to 20a, anion 15h compared to anion 20c
Procedure: Compounds 20a and 15a were characterized by UV-visible spectroscopy (FIG. 25). Absorbance was measured using 15 μM solutions of each compound in a solution that was 90% aqueous, 10% DMSO. The peaks at 545 nm (light dashed line) and 595 nm (light solid line) represent the respective anions, compounds 20c and 15h, in NaOH (pH 12). The peaks at 515 nm (heavy dashed line) and 525 nm (heavy solid line) represent the predominantly neutral forms of compounds 20a and 15a at pH 6, respectively.
Although the red shift of compound 15a in methanol was modest, its corresponding anion (compound 15h) in DMSO:aqueous base 1:9 was shifted more substantially by 50 nm to […] as compared to anion 20c under the same conditions. Its fluorescence emission was shifted by an even larger […], emitting at 760 nm. The comparatively large shift of the anion 15h supports a polar effect as playing a key role in modulating the HOMO-LUMO gap in the compound. […]
Known seminaphthorhodafluors display long wavelength absorption at high pH; however, the free amino compound in this series respond to low pH with increased long wavelength absorption.

[2] = Fluorescence emission spectra and Stokes shift of fluorophores (15 μM, 90% aqueous, 10% DMSO); type: physicochemical
Procedure: Compounds 21 and 7 also were characterized by their fluorescence emission spectra. Fluorescence was measured using 15 μM solutions of each compound in a solution that was 90% aqueous, 10% DMSO. For compound 21, the longest wavelength emission observed from the dianion occurred near 680 nm at pH 9. For compound 7 (transposed), the longest wavelength emission observed from the monoanion occurred near 800 nm at pH 9.
The Stokes shift of each compound was measured and determined to be about 80 nm for the compound 21 dianion, and about 150 nm for the compound 7 (transposed) monoanion.
Compounds 22 and 8 also were characterized by their fluorescence emission spectra. Fluorescence was measured using 15 μM solutions of each compound in a solution that was 90% aqueous, 10% DMSO. For compound 22, the longest wavelength emission observed from the anion occurred near 690 nm at pH 9. For compound 8 (transposed), emission was not observed. Given the greater than 800 nm absorbance peak and the typically large Stokes shifts observed in this class of compounds, it is likely that the emission was beyond the working range of the instrument (>850 nm).
The Stokes shift of each compound was measured and determined to be about 80 nm for the compound 22 anion, and unmeasurable for the compound 8 (transposed) neutral form.
Compounds 20a and 15a also were characterized by their fluorescence emission spectra. Fluorescence was measured using 15 μM solutions of each compound in a solution that was 90% aqueous, 10% DMSO. For compound 20a, the longest wavelength emission observed from its corresponding anion, compound 20c, occurred near 640 nm in NaOH (pH 12). For compound 15a (with 3-1 transposition), the longest wavelength emission observed from the corresponding anion, compound 15h, occurred near 760 nm in NaOH.
The Stokes shift of each compound was measured and determined to be about 95 nm for the compound 20c anion, and about 165 nm for the compound 15h (transposed) anion. Thus, the 3-1 transposition enhanced the Stokes shift by about 70 nm.
(§1) Compound 15b also was characterized by its fluorescence emission spectrum and compared to C.SNARF-5. Fluorescence was measured using a 15 μM solution of compound 15b in a solution that was 90% aqueous, 10% DMSO. For C.SNARF-5, the longest wavelength emission observed from the anion occurred near 632 nm (Whitaker et al., Anal. Biochem. 1991, 194, 330-344). For compound 15b (transposed), the longest wavelength emission observed from the phenoxide occurred near 770 nm.
The Stokes shift of each compound was measured and determined to be about 82 nm for the C.SNARF-5 anion, and about 155 nm for the compound 15b (transposed) phenoxide. Thus, the 3-1 transposition enhanced the Stokes shift by about 73 nm.
as §1, with “15d” for “15b”, “SNARF-1.” for “C.SNARF-5.”, “SNARF-1,” for “C.SNARF-5,”, “631” for “632”, “780 nm (NaOH, pH 12).” for “770 nm.”
The Stokes shift of each compound was measured and determined to be about 58 nm for the SNARF-1 anion, and about 150 nm for the compound 15d (transposed) phenoxide. Thus, the 3-1 transposition enhanced the Stokes shift by about 92 nm.
Compounds 20b and 15g also were characterized by their fluorescence emission spectra. Fluorescence was measured using 15 μM solutions of each compound in a solution that was 90% aqueous, 10% DMSO. For compound 20b, the longest wavelength emission observed from the cation occurred near 640 nm at pH 7.4. For compound 15g (transposed), the longest wavelength emission observed from the cation occurred near 770 nm at pH 7.4. […]

[3] = Absorbance and fluorescence measured in methanol; type: physicochemical; settings: versus analogue with known regiochemistry (8 vs 22, 15a vs 20a)
Procedure: Absorbance and fluorescence of compounds 22 and 8 also were measured in methanol. […] Thus, placement of the hydroxyl group proximal to the xanthene internal oxygen in compound 8 produced a bathochromic shift of 103 nm in the absorption spectrum. The transposition also imparted a corresponding shift in the excitation spectrum, and a large bathochromic shift of 128 nm in the fluorescence emission. Importantly, compound 8 absorbs and emits in the near-infrared with absorption and emission maxima of 701 nm and 816 nm, respectively.
Absorbance and fluorescence of compounds 20a and 15a also were measured in methanol. […] Thus, placement of the hydroxyl group proximal to the xanthene internal oxygen in compound 15a produced a bathochromic shift of 15 nm in the absorbance spectrum. The transposition also imparted a corresponding shift in the excitation spectrum, and a large bathochromic shift of 32 nm in the fluorescence emission.

[4] = Absorbance and emission in 0.1M NaOH; type: physicochemical
Source text: The absorbance and fluorescence spectra of the fluorophore typically are pH dependent. For example, the absorbance maximum for one ester derivative (compound 15d) in 0.1M NaOH is 620 nm and the emission maximum in same solvent is 770 nm. The Stokes shift in this solvent is 150 nm (3142 cm^−1).

[5] = Spectral properties of rhodamine bis-boronic acids and precursors (Table 5); type: physicochemical
Source text: Excitation and emission spectra were normalized to their absorbance at the excitation wavelength, and are proportional to quantum yield.

[6] = Saccharide sensing, absorbance and fluorescence response
Procedure: Solvents including MeCN, MeOH, EtOH, DMSO and buffer were initially screened for sugar sensing. […] DMSO mixtures were chosen for further studies.
The final pH 7.4 phosphate buffer concentration was 12.5 mM.

[7] = Saccharide sensing, response to ribose; settings: DMSO:buffer 1:1, entire concentration range investigated
Procedure: The spectral behavior of both compounds 51 and 53 in the presence of saccharides was further investigated in both 1:1 and 1:9 DMSO-buffer (final pH 7.4 phosphate buffer concentration of 12.5 mM) solutions. Both bis-boronic acids responded to binding of sugars through a red shift in their emission and the expected increase in fluorescence intensity.
FIGS. 37A-37D show the response of bis-boronic acid 51 to fructose, ribose and glucose under the two solvent conditions mentioned above. […] At high sugar concentrations, the response for all three sugars converged. […] An approximately 1.5-fold increase in both absorbance and fluorescence was observed over the entire concentration range investigated. Binding of all three sugars occurred at lower concentrations as compared to the 1:9 DMSO:buffer system, with the response of both ribose and fructose having already plateaued at 10 mM, the lowest concentration investigated. Unlike the 1:9 solvent system, there were significant spectral differences in the responses toward different sugars (FIG. 37C compared to FIG. 37A).

[8] = Saccharide sensing, response to fructose; settings: DMSO:buffer 1:9; estimated from 140-fold fluorescence and 3-fold absorbance increase
[9] = DMSO:buffer 1:1, pH 7.4 phosphate buffer 12.5 mM
[10] = DMSO:buffer 1:9, pH 7.4 phosphate buffer 12.5 mM
[11] = DMSO:buffer 1:9, high sugar concentrations, all sugars

red-shift of absorbance maximum [1]: 15 nm | bathochromic shift in the absorption spectrum [3]: 15 nm | bathochromic shift in the fluorescence emission [3]: 32 nm
SMILES: COC(=O)c1ccccc1-c1c2ccc(=O)cc-2oc2c1ccc1cccc(O)c12 [Compound 15a]

time emission remained stable (Emission in blood; 5% whole blood): at least 1 hour | absorbance maximum [4]: 620 nm | emission maximum [4]: 770 nm
SMILES: COC(=O)c1ccccc1-c1c2ccc(=[N+](C)C)cc-2oc2c1ccc1cccc(O)c12 [Compound 15d]

red-shift of absorbance maximum [1]: 50 nm | absorbance maximum ([1]; anion, DMSO:aqueous base 1:9): 599 nm | bathochromic shift in emission wavelength ([2]; anion 15h compared to anion 20c): 130 nm | Stokes shift ([2]; anion/phenoxide in NaOH (pH 12)): about 165 nm | fluorescence emission ([2]; anion, DMSO:aqueous base 1:9): 760 nm | Stokes shift ([2]; anionic form, NIR emission at 760 nm): 160 nm
SMILES: COC(=O)c1ccccc1-c1c2ccc(=O)cc-2oc2c1ccc1cccc(O)c12 [Compound 15h]

Continued, molecule first:

SMILES: Cc1ccc(C)c(-c2c3ccc4cccc(O)c4c3oc3c2ccc2cccc(=O)c23)c1 [Compound 4a]
absorption in the blood solution (Emission in blood; blood solution): clearly visible and remained stable over extended periods of time

SMILES: O=C1OC2(c3ccccc31)c1ccc3cccc(O)c3c1Oc1c2ccc2cccc(O)c12 [Compound 7]
form in solution ([1]; 1:9 DMSO:buffer below physiological pH of 7.4): colorless lactone | longest wavelength emission ([2]; NaOH (pH 12), anion/dianion/phenoxide, 15 μM, 90% aqueous, 10% DMSO): either too weak to be detected or, more likely, beyond the working range of the instrument

SMILES: COC(=O)c1ccccc1-c1c2ccc3cccc(O)c3c2oc2c1ccc1cccc(=O)c12 [Compound 8]
fluorescence emission ([2]; 15 μM, 90% aqueous, 10% DMSO, instrument range to 850 nm): not observed | bathochromic shift in the absorption spectrum [3]: 103 nm | bathochromic shift in the fluorescence emission [3]: 128 nm

SMILES: COC(=O)c1ccccc1-c1c2ccc(=O)cc-2oc2c1ccc1cccc(N)c12 [Compound 15e]
pH titration of absorption ([1]; low pH): increased long wavelength absorption and decreased short wavelength absorption at low pH

SMILES: N=c1ccc2c(ccc3c(-c4ccccc4C(=O)O)c4ccc(N)cc4oc32)c1 [Compound 50]
quantum yield ([5]; DMSO buffer 1:9): 19% | red shift of maximum absorption versus rhodamine 110 ([5]; DMSO buffer 1:9): 40 nm | red shift of maximum emission versus rhodamine 110 ([5]; DMSO buffer 1:9): ~100 nm | Abs [5, 9]: 542 nm | Brightness [5, 9]: 6298 | Em [5, 9]: 630 nm | Ex [5, 9]: 542 nm | Q.Y. [5, 9]: 0.30 | ε [5, 9]: 21064 M⁻¹ cm⁻¹ | Abs [5, 10]: 535 nm | Brightness [5, 10]: 8083 | Em [5, 10]: 628 nm | Ex [5, 10]: 534 nm | Q.Y. [5, 10]: 0.19 | ε [5, 10]: 42701 M⁻¹ cm⁻¹

SMILES: O=C(O)c1ccccc1-c1c2ccc(NCc3ccccc3B(O)O)cc2oc2c1ccc1cc(=NCc3ccccc3B(O)O)ccc12 [Compound 51]
increase in absorbance [6, 11]: ~2 fold | increase in fluorescence [6, 11]: greater than 5 fold | Abs [5, 9]: 579 nm | Brightness [5, 9]: 8037 | Em [5, 9]: 643 nm | Ex [5, 9]: 580 nm | Q.Y. [5, 9]: 0.35 | ε [5, 9]: 23096 M⁻¹ cm⁻¹ | Abs [5, 10]: 560 nm | Brightness [5, 10]: 3032^e | Em [5, 10]: 638 nm | Ex [5, 10]: 568 nm | Q.Y. [5, 10]: 0.15 | ε [5, 10]: 20326 M⁻¹ cm⁻¹ | increase in absorbance [7]: approximately 1.5 fold | increase in fluorescence [7]: approximately 1.5 fold

SMILES: O=C(O)c1ccccc1-c1c2ccc3cc(NCc4ccccc4B(O)O)ccc3c2oc2c1ccc1cc(=NCc3ccccc3B(O)O)ccc12 [Compound 53]
quantum yield after binding [8]: 0.186 | increase in emission ([6]; DMSO:buffer 1:1, all three sugars, emission at 720 nm, excitation at 640 nm): ~5 fold
